Reference: ChEMBL document CHEMBL4339208, “6-Bromoindolglyoxylamido derivatives as antimicrobial agents and antibiotic enhancers” (Bioorg Med Chem, 2019)
≈ marks a conversion by molar mass, not a printed value. Calls of active or inactive are those of the source. The calls are words filed in the database; no cut-off is given here.

Legend:
[1] = system: Candida albicans; experiment: Antifungal activity against Candida albicans ATCC 90028 measured after 36 hrs; format: functional; settings: ATCC 90028, 36 h
[2] = system: Cryptococcus neoformans; experiment: Antifungal activity against Cryptococcus neoformans ATCC 208821 measured after 36 hrs by resazurin dye based assay; format: functional; settings: ATCC 208821, 36 h
[3] = system: Escherichia coli; experiment: Antibacterial activity against Escherichia coli ATCC 25922 measured after 18 hrs by broth dilution method; format: functional
[4] = system: Acinetobacter baumannii; experiment: Antibacterial activity against Acinetobacter baumannii ATCC 19606 measured after 18 hrs by resazurin dye based assay; format: functional
[5] = system: Pseudomonas aeruginosa; experiment: Antibacterial activity against Pseudomonas aeruginosa ATCC 27853 measured after 18 hrs by broth dilution method; format: functional
[6] = system: Klebsiella pneumoniae; experiment: Antibacterial activity against Klebsiella pneumoniae ATCC 700603 measured after 18 hrs by resazurin dye based assay; format: functional
[7] = system: Erythrocyte; experiment: Hemolytic activity against human RBC incubated for 10 mins under shaking condition measured after 1 hr; format: ADME, cell-based
[8] = system: L6; experiment: Cytotoxicity against rat L6 cells measured after 72 hrs by alamar blue assay; format: cell-based; settings: L6, 72 h
[9] = Cytotoxicity against HEK293 cells measured after 20 hrs by resazurin dye based fluorescence assay; format: cell-based, Homo sapiens; settings: human, HEK293 cells
[10] = system: Staphylococcus aureus; experiment: Antibacterial activity against Staphylococcus aureus ATCC 25923 measured after 18 hrs by broth dilution method; format: functional; settings: ATCC 25923, 18 h
[11] = system: Pseudomonas aeruginosa; experiment: Potentiation of doxycycline-induced antibacterial activity against Pseudomonas aeruginosa ATCC 27853 assessed as concentration required to restore 2 ug/ml doxycycline activity measured after 18 hrs; format: functional
[12] = system: Acinetobacter baumannii; experiment: Antibacterial activity against Acinetobacter baumannii ATCC 19606 at 32 ug/ml measured after 18 hrs by resazurin dye based assay; format: functional, organism-based; settings: ATCC 19606 = CIP 70.34 = JCM 6841
[13] = system: Klebsiella pneumoniae; experiment: Antibacterial activity against Klebsiella pneumoniae ATCC 700603 at 32 ug/ml measured after 18 hrs by resazurin dye based assay; format: functional, organism-based
[14] = system: Cryptococcus neoformans; experiment: Antifungal activity against Cryptococcus neoformans ATCC 208821 at 32 ug/ml measured after 36 hrs by resazurin dye based assay; format: functional, organism-based
[15] = system: Staphylococcus intermedius; experiment: Antibacterial activity against Staphylococcus intermedius 1051997 measured after 18 hrs by broth dilution method; format: functional; settings: Staphylococcus intermedius, 1051997, 18 h
[16] = system: Candida albicans; experiment: Antifungal activity against Candida albicans ATCC 90028 at 32 ug/ml measured after 36 hrs; format: functional, organism-based
[17] = system: Pseudomonas aeruginosa; experiment: Disruption of membrane integrity in Pseudomonas aeruginosa PAO1 assessed as decrease in intracellular ATP level at 1% by luciferin-luciferase reagent based luminescence assay relative to control; format: functional, organism-based; parameters: scale not given: the % may be the effect or the level left
[18] = system: Staphylococcus aureus; experiment: Disruption of membrane integrity in Staphylococcus aureus ATCC 25923 assessed as increase in extracellular ATP level at 10 uL by luciferin-luciferase reagent based luminescence assay; format: functional, organism-based
[19] = system: Pseudomonas aeruginosa; experiment: Disruption of membrane integrity in Pseudomonas aeruginosa PAO1 assessed as increase in extracellular ATP level at 10 uL by luciferin-luciferase reagent based luminescence assay; format: functional, organism-based
[20] = system: Staphylococcus aureus; experiment: Induction of membrane depolarization in Staphylococcus aureus ATCC 25923 measured after 15 mins by DiSC3(5) dye based spectrofluorometric method; format: functional, organism-based
[21] = system: Erythrocyte; experiment: Hemolytic activity against human RBC at 32 ug/ml incubated for 10 mins under shaking condition measured after 1 hr; format: ADME, cell-based
[22] = ATCC 19606 = CIP 70.34 = JCM 6841, 18 h
[23] = Klebsiella pneumoniae, 700603, 18 h

Compound	MIC [1]	MIC [2]	HC10 [7]	IC50 [8]	CC50 at 20 h [9]	MIC ([3]; ATCC 25922, 18 h)	MIC [10]	MIC [4, 22]	MIC ([5]; ATCC 27853, 18 h)	Activity [11]	MIC [6, 23]	Activity [12]	Activity [13]	Activity [14]	MIC [15]	Activity [16]	further results
OC(Cn1cncn1)(Cn1cncn1)c1ccc(F)cc1F [FLUCONAZOLE]	0.125 µg/mL	8 µg/mL	–	–	–	–	–	–	–	–	–	–	–	–	–	–	–
COLISTIN	–	–	–	–	–	–	–	–	–	–	–	–	–	–	–	–	MIC [3]: 1 µM; MIC ([4]; ATCC 19606 = CIP 70.34 = JCM 6841): 0.25 µg/mL; MIC [5]: 2 µM; MIC [6]: 0.25 µg/mL
O=C(NCCCNCCCCCCCCCCNCCCNC(=O)C(=O)c1c[nH]c2cc(Br)ccc12)C(=O)c1c[nH]c2cc(Br)ccc12.O=C(O)C(F)(F)F.O=C(O)C(F)(F)F	1.97 µM	< 0.25 µM	7.88 µM	12.4 µM	6.03 µM	24.6 µM	12.3 µM	31.5 µM	24.6 µM	6.16 µM	31.5 µM	–	–	–	–	–	–
CN(C)CCNC(=O)C(=O)c1c[nH]c2cc(Br)ccc12	> 95 µM	> 95 µM	–	99.5 µM	> 95 µM	> 200 µM	> 200 µM	> 95 µM	> 200 µM	>200 µM	> 95 µM	inactive	inactive	inactive	12.5 µM (≈ 4.23 µg/mL)	inactive	–
CN[C@@H]1[C@H](O[C@H]2[C@H](O[C@H]3[C@H](O)[C@@H](O)[C@H](N=C(N)N)[C@@H](O)[C@@H]3N=C(N)N)O[C@@H](C)[C@]2(O)C=O)O[C@@H](CO)[C@H](O)[C@H]1O [STREPTOMYCIN]	–	–	–	–	–	21.5 µM (≈ 12.5 µg/mL)	21.5 µM (≈ 12.5 µg/mL)	–	21.5 µM (≈ 12.5 µg/mL)	–	–	–	–	–	10.7 µM (≈ 6.22 µg/mL)	–	–
O=C(NCCCCNC(=O)C(=O)c1c[nH]c2cc(Br)ccc12)C(=O)c1c[nH]c2cc(Br)ccc12	> 54 µM	> 54 µM	–	> 150 µM	> 54 µM	> 200 µM	> 200 µM	> 54 µM	> 200 µM	>200 µM	> 54 µM	inactive	inactive	inactive	> 200 µM	inactive	–
O=C(NCCCNCCCCCCNCCCNC(=O)C(=O)c1c[nH]c2cc(Br)ccc12)C(=O)c1c[nH]c2cc(Br)ccc12.O=C(O)C(F)(F)F.O=C(O)C(F)(F)F	8.35 µM	33.4 µM	18 µM	5.7 µM	17.1 µM	52.2 µM	6.5 µM	> 33.4 µM	> 200 µM	6.52 µM	> 33.4 µM	inactive	inactive	–	–	–	–
O=C(NCCCCCCCCCCCCNC(=O)C(=O)c1c[nH]c2cc(Br)ccc12)C(=O)c1c[nH]c2cc(Br)ccc12	> 46 µM	> 46 µM	–	89.1 µM	> 46 µM	> 200 µM	> 200 µM	> 46 µM	> 200 µM	>200 µM	> 46 µM	inactive	inactive	inactive	100 µM (≈ 70 µg/mL)	inactive	–
Cetyl trimethylammonium bromide	–	–	–	–	–	–	–	–	–	–	–	–	–	–	–	–	Activity [17]: 10%; Activity [18]: Active; Activity [19]: Active
O=C(NCCCNCCCCCCCCCCCCNCCCNC(=O)C(=O)c1c[nH]c2cc(Br)ccc12)C(=O)c1c[nH]c2cc(Br)ccc12.O=C(O)C(F)(F)F.O=C(O)C(F)(F)F	7.67 µM	7.67 µM	2.18 µM	1.6 µM	9.72 µM	> 200 µM	> 200 µM	> 32 µM	> 200 µM	>200 µM	> 32 µM	inactive	inactive	–	–	–	–
O=C(NCCCOCCOCCOCCCNC(=O)C(=O)c1c[nH]c2cc(Br)ccc12)C(=O)c1c[nH]c2cc(Br)ccc12	> 44 µM	> 44 µM	–	75.4 µM	> 44 µM	> 200 µM	> 200 µM	> 44 µM	> 200 µM	>200 µM	> 44 µM	inactive	inactive	inactive	12.5 µM (≈ 9.01 µg/mL)	inactive	–
CC[C@H](C)[C@H](NC(=O)CN)C(=O)NCC(=O)N[C@@H](C)C(=O)N[C@H](C(=O)N[C@@H](CC(C)C)C(=O)N[C@@H](CCCCN)C(=O)N[C@H](C(=O)N[C@@H](CC(C)C)C(=O)N[C@H](C(=O)N[C@H](C(=O)NCC(=O)N[C@@H](CC(C)C)C(=O)N1CCC[C@H]1C(=O)N[C@@H](C)C(=O)N[C@@H](CC(C)C)C(=O)N[C@H](C(=O)N[C@@H](CO)C(=O)N[C@@H](Cc1c[nH]c2ccccc12)C(=O)N[C@H](C(=O)N[C@@H](CCCCN)C(=O)N[C@@H](CCCNC(=N)N)C(=O)N[C@@H](CCCCN)C(=O)N[C@@H](CCCNC(=N)N)C(=O)N[C@@H](CCC(N)=O)C(=O)N[C@@H](CCC(N)=O)C(N)=O)[C@@H](C)CC)[C@@H](C)CC)[C@@H](C)O)[C@@H](C)O)C(C)C)C(C)C [MELITTIN]	–	–	2.7 µg/mL	–	–	–	–	–	–	–	–	–	–	–	–	–	–
CC(C)[C@@H](CC[C@@H](C)[C@H]1CC[C@H]2[C@@H]3[C@H](O)C[C@H]4C[C@@H](NCCCNCCCCN)CC[C@]4(C)[C@H]3CC[C@]12C)OS(=O)(=O)O	–	–	–	–	–	–	–	–	–	–	–	–	–	–	–	–	Activity [20]: Dose-dependent effect
O=C(NCCCNCCCCCCCNCCCNC(=O)C(=O)c1c[nH]c2cc(Br)ccc12)C(=O)c1c[nH]c2cc(Br)ccc12.O=C(O)C(F)(F)F.O=C(O)C(F)(F)F	16.5 µM	> 33 µM	> 33 µM	4.4 µM	10.6 µM	51.4 µM	6.4 µM	> 33 µM	51.4 µM	12.9 µM	> 33 µM	inactive	inactive	inactive	–	–	Activity [21]: Non-Toxic
O=C(NCCN1CCOCC1)C(=O)c1c[nH]c2cc(Br)ccc12	> 84 µM	> 84 µM	–	157 µM	> 84 µM	> 200 µM	> 200 µM	> 84 µM	> 200 µM	>200 µM	> 84 µM	inactive	inactive	inactive	12.5 µM (≈ 4.75 µg/mL)	inactive	–
O=C(NCCCNCCCCCCCCNCCCNC(=O)C(=O)c1c[nH]c2cc(Br)ccc12)C(=O)c1c[nH]c2cc(Br)ccc12.O=C(O)C(F)(F)F.O=C(O)C(F)(F)F	8.11 µM	32.4 µM	> 32 µM	5.6 µM	6.2 µM	50 µM	50 µM	> 32.4 µM	6.25 µM	25 µM	> 32.4 µM	inactive	inactive	–	12.5 µM	–	Activity [21]: Non-Toxic
O=C(NCCCNCCNC(=O)C(=O)c1c[nH]c2cc(Br)ccc12)C(=O)c1c[nH]c2cc(Br)ccc12	> 52 µM	> 52 µM	–	89.3 µM	> 52 µM	> 200 µM	12.5 µM (≈ 7.72 µg/mL)	> 52 µM	> 200 µM	>200 µM	> 52 µM	inactive	inactive	inactive	50 µM (≈ 30.9 µg/mL)	inactive	–
O=C(NCCCCNCCCNC(=O)C(=O)c1c[nH]c2cc(Br)ccc12)C(=O)c1c[nH]c2cc(Br)ccc12	> 50 µM	50 µM	> 50 µM	8.7 µM	2.32 µM	> 200 µM	3.12 µM (≈ 2.02 µg/mL)	> 50 µM	50 µM (≈ 32.3 µg/mL)	>200 µM	> 50 µM	inactive	inactive	–	3.12 µM (≈ 2.02 µg/mL)	inactive	Activity [21]: Non-Toxic
